From ChEMBL document CHEMBL1201861, “Genomics of Drug Sensitity in Cancer screening data, Wellcome Trust Sanger Institute”

tested on: OCI-AML2; assay: cells; type: functional, cell-based, Homo sapiens; details: Homo sapiens, OCI-AML2;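 also: growth inhibition of OCI-AML2 cells, read out with a cell viability assay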
Description: SANGER: Inhibition of human OCI-AML2 cell growth in a cell viability assay.

SMILES	IC50 [µM]
C=CC(=O)N1CCCC(Nc2nc(Nc3ccc(N(C)C(=O)CC)cc3)nc3[nH]cnc23)C1 (stereo not given)	> 10.2

tested on: NCI-H446; assay: cells; type: functional, cell-based, Homo sapiens; details: Homo sapiens, NCI-H446;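 also: growth inhibition of NCI-H446 cells determined by a cell viability assay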
Description: SANGER: Inhibition of human NCI-H446 cell growth in a cell viability assay.

SMILES	IC50 [µM]
C=CC(=O)N1CCCC(Nc2nc(Nc3ccc(N(C)C(=O)CC)cc3)nc3[nH]cnc23)C1 (stereo not given)	> 10.2

tested on: BB65-RCC; assay: cells; type: functional, cell-based, Homo sapiens; details: Homo sapiens, BB65-RCC;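 also: growth inhibition of the cell line, measured with a cell viability assay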
Description: SANGER: Inhibition of human BB65-RCC cell growth in a cell viability assay.

SMILES	IC50 [µM]
C=CC(=O)N1CCCC(Nc2nc(Nc3ccc(N(C)C(=O)CC)cc3)nc3[nH]cnc23)C1 (stereo not given)	> 10.2

tested on: HCE-4; assay: cells; type: functional, cell-based; details: Homo sapiens;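 also: cell viability assay measuring inhibition of growth in the human HCE-4 cell line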
Description: SANGER: Inhibition of human HCE-4 cell growth in a cell viability assay.

SMILES	IC50 [µM]
C=CC(=O)N1CCCC(Nc2nc(Nc3ccc(N(C)C(=O)CC)cc3)nc3[nH]cnc23)C1 (stereo not given)	> 10.2

tested on: MZ1-PC; assay: cells; type: functional, cell-based, Homo sapiens; details: Homo sapiens, MZ1-PC;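 also: cell viability assay measuring growth inhibition of human MZ1-PC cells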
Description: SANGER: Inhibition of human MZ1-PC cell growth in a cell viability assay.

SMILES	IC50 [µM]
C=CC(=O)N1CCCC(Nc2nc(Nc3ccc(N(C)C(=O)CC)cc3)nc3[nH]cnc23)C1 (stereo not given)	7.94

tested on: EW-3; assay: cells; type: functional, cell-based, Homo sapiens; details: Homo sapiens, EW-3;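 also: cell viability assay read-out, IC50 reflects inhibition of growth of the EW-3 cells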
Description: SANGER: Inhibition of human EW-3 cell growth in a cell viability assay.

SMILES	IC50 [µM]
C=CC(=O)N1CCCC(Nc2nc(Nc3ccc(N(C)C(=O)CC)cc3)nc3[nH]cnc23)C1 (stereo not given)	> 10.2

tested on: ES1; assay: cells; type: functional, cell-based, Homo sapiens; details: Homo sapiens, ES1;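 also: growth inhibition of ES1 cells, read out with a cell viability assay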
Description: SANGER: Inhibition of human ES1 cell growth in a cell viability assay.

SMILES	IC50 [µM]
C=CC(=O)N1CCCC(Nc2nc(Nc3ccc(N(C)C(=O)CC)cc3)nc3[nH]cnc23)C1 (stereo not given)	> 10.2

tested on: A253 cell line; assay: cells; type: functional, cell-based, Homo sapiens; details: Homo sapiens, A253;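 also: growth inhibition of A253 cells, read out with a cell viability assay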
Description: SANGER: Inhibition of human A253 cell growth in a cell viability assay.

SMILES	IC50 [µM]
C=CC(=O)N1CCCC(Nc2nc(Nc3ccc(N(C)C(=O)CC)cc3)nc3[nH]cnc23)C1 (stereo not given)	> 10.2

tested on: TE-5; assay: cells; type: functional, cell-based, Homo sapiens; details: Homo sapiens, TE-5;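 also: inhibition of cell growth, read out by a cell viability assay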
Description: SANGER: Inhibition of human TE-5 cell growth in a cell viability assay.

SMILES	IC50 [µM]
C=CC(=O)N1CCCC(Nc2nc(Nc3ccc(N(C)C(=O)CC)cc3)nc3[nH]cnc23)C1 (stereo not given)	> 10.2

tested on: NCI-H1648; assay: cells; type: functional, cell-based, Homo sapiens; details: Homo sapiens, NCI-H1648;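 also: cell viability assay measuring inhibition of NCI-H1648 cell growth, from the Sanger screening data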
Description: SANGER: Inhibition of human NCI-H1648 cell growth in a cell viability assay.

SMILES	IC50 [µM]
C=CC(=O)N1CCCC(Nc2nc(Nc3ccc(N(C)C(=O)CC)cc3)nc3[nH]cnc23)C1 (stereo not given)	8.58

tested on: KP-N-YS; assay: cells; type: functional, cell-based, Homo sapiens; details: Homo sapiens, KP-N-YS;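 also: cell viability assay measuring inhibition of cell line growth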
Description: SANGER: Inhibition of human KP-N-YS cell growth in a cell viability assay.

SMILES	IC50 [µM]
C=CC(=O)N1CCCC(Nc2nc(Nc3ccc(N(C)C(=O)CC)cc3)nc3[nH]cnc23)C1 (stereo not given)	> 10.2

tested on: KALS-1; assay: cells; type: functional, cell-based, Homo sapiens; details: Homo sapiens, KALS-1; read-out: IC50;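 also: growth inhibition of KALS-1 cells, determined with a cell viability assay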
Description: SANGER: Inhibition of human KALS-1 cell growth in a cell viability assay.

SMILES	IC50 [µM]
C=CC(=O)N1CCCC(Nc2nc(Nc3ccc(N(C)C(=O)CC)cc3)nc3[nH]cnc23)C1 (stereo not given)	> 10.2

tested on: NOS-1; assay: cells; type: functional, cell-based, Homo sapiens; details: Homo sapiens, NOS-1;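 also: growth inhibition of the human NOS-1 cell line, read out with a cell viability assay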
Description: SANGER: Inhibition of human NOS-1 cell growth in a cell viability assay.

SMILES	IC50 [µM]
C=CC(=O)N1CCCC(Nc2nc(Nc3ccc(N(C)C(=O)CC)cc3)nc3[nH]cnc23)C1 (stereo not given)	> 10.2

tested on: LU-134-A; assay: cells; type: functional, cell-based, Homo sapiens; details: Homo sapiens, LU-134-A
Description: SANGER: Inhibition of human LU-134-A cell growth in a cell viability assay.

SMILES	IC50 [µM]
C=CC(=O)N1CCCC(Nc2nc(Nc3ccc(N(C)C(=O)CC)cc3)nc3[nH]cnc23)C1 (stereo not given)	> 10.2

tested on: BT-474; assay: cells; type: functional, cell-based, Homo sapiens; details: Homo sapiens, BT-474
Description: SANGER: Inhibition of human BT-474 cell growth in a cell viability assay.

SMILES	IC50 [µM]
C=CC(=O)N1CCCC(Nc2nc(Nc3ccc(N(C)C(=O)CC)cc3)nc3[nH]cnc23)C1 (stereo not given)	> 10.2

tested on: OMC-1; assay: cells; type: functional, cell-based, Homo sapiens; details: Homo sapiens, OMC-1;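 also: growth inhibition of the OMC-1 cell line, measured by a cell viability assay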
Description: SANGER: Inhibition of human OMC-1 cell growth in a cell viability assay.

SMILES	IC50 [µM]
C=CC(=O)N1CCCC(Nc2nc(Nc3ccc(N(C)C(=O)CC)cc3)nc3[nH]cnc23)C1 (stereo not given)	> 10.2

tested on: UACC-257; assay: cells; type: functional, cell-based, Homo sapiens; details: Homo sapiens, UACC-257
Description: SANGER: Inhibition of human UACC-257 cell growth in a cell viability assay.

SMILES	IC50 [µM]
C=CC(=O)N1CCCC(Nc2nc(Nc3ccc(N(C)C(=O)CC)cc3)nc3[nH]cnc23)C1 (stereo not given)	> 10.2

tested on: KG-1; assay: cells; type: functional, cell-based, Homo sapiens; details: Homo sapiens, KG-1;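 also: growth inhibition of KG-1 cells, read out by a cell viability assay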
Description: SANGER: Inhibition of human KG-1 cell growth in a cell viability assay.

SMILES	IC50 [µM]
C=CC(=O)N1CCCC(Nc2nc(Nc3ccc(N(C)C(=O)CC)cc3)nc3[nH]cnc23)C1 (stereo not given)	> 10.2

tested on: KY821; assay: cells; type: functional, cell-based, Homo sapiens; details: Homo sapiens, KY821;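 also: growth inhibition of human KY821 cells, read out by a cell viability assay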
Description: SANGER: Inhibition of human KY821 cell growth in a cell viability assay.

SMILES	IC50 [µM]
C=CC(=O)N1CCCC(Nc2nc(Nc3ccc(N(C)C(=O)CC)cc3)nc3[nH]cnc23)C1 (stereo not given)	> 10.2

tested on: KM12; assay: cells; type: functional, cell-based, Homo sapiens; details: Homo sapiens, KM12;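 also: KM12 cell growth inhibition, read out with a cell viability assay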
Description: SANGER: Inhibition of human KM12 cell growth in a cell viability assay.

SMILES	IC50 [µM]
C=CC(=O)N1CCCC(Nc2nc(Nc3ccc(N(C)C(=O)CC)cc3)nc3[nH]cnc23)C1 (stereo not given)	> 10.2

tested on: NCI-H526; assay: cells; type: functional, cell-based, Homo sapiens; details: Homo sapiens, NCI-H526;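 also: growth inhibition of the human NCI-H526 cell line, measured by a cell viability assay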
Description: SANGER: Inhibition of human NCI-H526 cell growth in a cell viability assay.

SMILES	IC50 [µM]
C=CC(=O)N1CCCC(Nc2nc(Nc3ccc(N(C)C(=O)CC)cc3)nc3[nH]cnc23)C1 (stereo not given)	> 10.2

tested on: NCI-H1770; assay: cells; type: functional, cell-based, Homo sapiens; details: Homo sapiens, NCI-H1770;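 also: growth inhibition of NCI-H1770 cells determined with a viability readout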
Description: SANGER: Inhibition of human NCI-H1770 cell growth in a cell viability assay.

SMILES	IC50 [µM]
C=CC(=O)N1CCCC(Nc2nc(Nc3ccc(N(C)C(=O)CC)cc3)nc3[nH]cnc23)C1 (stereo not given)	> 10.2

tested on: SW 962; assay: cells; type: functional, cell-based, Homo sapiens; details: Homo sapiens, SW 962;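 also: growth inhibition of human SW962 cells, read out by a cell viability assay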
Description: SANGER: Inhibition of human SW962 cell growth in a cell viability assay.

SMILES	IC50 [µM]
C=CC(=O)N1CCCC(Nc2nc(Nc3ccc(N(C)C(=O)CC)cc3)nc3[nH]cnc23)C1 (stereo not given)	5.16

tested on: SNU1; assay: cells; type: functional, cell-based, Homo sapiens; details: Homo sapiens, SNU1;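 also: growth inhibition of human NCI-SNU-1 cells, measured with a cell viability assay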
Description: SANGER: Inhibition of human NCI-SNU-1 cell growth in a cell viability assay.

SMILES	IC50 [µM]
C=CC(=O)N1CCCC(Nc2nc(Nc3ccc(N(C)C(=O)CC)cc3)nc3[nH]cnc23)C1 (stereo not given)	> 10.2

tested on: COLO-824; assay: cells; type: functional, cell-based, Homo sapiens; details: Homo sapiens, COLO-824
Description: SANGER: Inhibition of human COLO-824 cell growth in a cell viability assay.

SMILES	IC50 [µM]
C=CC(=O)N1CCCC(Nc2nc(Nc3ccc(N(C)C(=O)CC)cc3)nc3[nH]cnc23)C1 (stereo not given)	> 10.2
